The nature of data set [1]: Plasma protein binding by equilibrium dialysis. It is filed as in vitro ADME. As to the method: The binding of test substances to plasma proteins is determined by equilibrium dialysis by means of the Ht-dialysis apparatus (96-well) made of Teflon and a semipermeable membrane (regenerated cellulose, MWCO 12-14K). This separates 150 μl each of a plasma side and a buffer side (50 mM phosphate buffer). The test substance is added in 2 concentrations (usually 3 and 0.3 μM) to the plasma side and binds to plasma proteins. The unbound fraction of the test substance passes through the membrane and is distributed on either side until equilibrium is established (after approx. 6-8 h at 37° C.). The substance concentration on the buffer side and the plasma side is determined by LC-MS analysis. For this, both sides are brought by dilution with buffer or plasma to the same matrix (10% plasma) and then precipitated with methanol. The free (unbound) fraction (fu) is calculated from the quotient of the buffer and plasma concentration. Stability tests and recovery tests are run concurrently as controls. In addition, the substance in buffer is dialysed against buffer, to check the nonspecific binding to apparatus and membrane and establishment of equilibrium. Because during incubation the osmotic pressure of the plasma proteins leads to dilution of the plasma (volume shift), this possible error is determined by weighing blank plasma samples and is included in the calculation of fu. Establishment of equilibrium and plasma stability should have a value not lower than 80% and the recovery should be at least 30%. A free fraction of <1% is regarded as high, between 1 and 10% as moderate and >10% as low plasma protein binding.
On the technique in general: In equilibrium dialysis free small molecules cross a membrane that holds back macromolecules.

Data set [2] can be described thus: Membrane affinity logMA (MA-Transil). Type of data set: physicochemical. To be noted: buffer pH 7.4. As for the experimental part: Assays for Determining Membrane Affinity logMA and Protein Binding to Human Serum Albumin (HSA):
Determination of membrane affinity and protein binding to human serum albumin (HSA) was carried out via Transil technology (literature: A. Loidl-Stahlhofen, A. Eckert, T. Hartmann, M. Schöttner J Pharm Sci 90, 599-606 (2001)). Transil® (commercially available from Sovicell in Leipzig, Germany) are glass beads (diameter 10-12 μm) coated with a double-layer membrane of phosphatidylcholine (MA-Transil) or covalently attached human serum albumin (HSA-Transil).
To determine the logMA and the protein binding constant to HSA, the commercially available TRANSIL Intestinal Absorption & HSA Binding Combined Assay Kit was used. This is a 96-well microtitre plate (96 well-MTP) which is filled with Transil and can be used to determine MA-Transil and HSA-Transil binding of in each case eight active compounds. For each active compound, the Transil plate provides a row of 12 wells. Two wells serve as reference and are only filled with buffer pH 7.4. Five further wells contain MA-Transil in various increasing concentrations, the five remaining wells contain HSA-Transil in various increasing concentrations.
To determine binding of an active compound to Transil, the supernatant of the wells with Transil was quantified against the reference solution without Transil via HPLC-MS coupling (HPLC-MS=high performance liquid chromatography/mass spectrometry).
This is how the individual steps of the assay were carried out:
From the internal substance store, the active compounds were delivered in a 96-well MTP. This plate is referred to as mother plate. Each well contained 30 μl of a 10 mmol solution of active compound in DMSO (dimethyl sulphoxide). Two wells at the start (well A1) and at the end of the plate (well H12) were filled with 30 μl of a 10 mmol solution of warfarin in DMSO. Warfarin, whose membrane affinity and binding to HSA is known, serves to check whether the measurement is correct. The mother plate was used to prepare a daughter plate with a 1 to 4000 dilution with a mixture of buffer pH 7.4 and DMSO in a ratio of 1+1. The active compound concentration of each well was 2.5 μmol/liter, the volume of each well was 400 μl.
Using a Hamilton pipetting robot Microlab STAR, the 96 active compounds from the daughter plate were divided onto 12 Transil plates in total. From each well of the daughter plate, 12 times 20 μl were removed. The concentration of each well of the Transil plate was 0.25 μmol/liter, which corresponds to a dilution of 1 to 10. The DMSO content was 5%.
The filled Transil plates were each resuspended for two minutes, then allowed to stand at room temperature for at least two minutes and then centrifuged at 600 rotations per minute for five minutes. The pipetting robot was then used to remove 20 μl of supernatant from each well of the Transil plate and to transfer these to a separate microtitre plate. Here, the supernatants of in each case four Transil plates were pooled in a microtitre plate, so that at the end there were three pooled microtitre plates with in each case 80 μl of solution and an active compound concentration of 62.5 nM per well.
Prior to quantification of the active compounds by HPLC-MS, an optimization has to be carried out for each active compound where by way of a single injection daughter ion and optimum electrical voltages are determined. To this end, the pipetting robot prepared a dilution of the mother plate of 1 to 10 000 000 in an acetonitrile/water mixture in a ratio of 8+2 in a separate microtitre plate. This microtitre plate was measured by HPLC-MS using the software Discovery Quant Optimize from AB Sciex. The three pooled microtitre plates were measured by HPLC-MS using the software Discovery Quant Analyze from AB Sciex. […]

Setting [3] is: human plasma, read-out: fu [%] (human).
Where [4] appears, read: mouse plasma, read-out: fu [%] (mouse).
[5] abbreviates: rat plasma, read-out: fu [%] (rat).

Read-outs that look alike come from different tables or passages of the source. Where only a bound is given, the exact number is not on record here.

For the compound `CO[C@]1(C(F)(F)F)CC[C@]2(CC1)NC(=O)C(c1cc(-c3ccc(Cl)cc3)ccc1C)=C2O` [Example 1-1, (5r,8r)-3-(4′-Chloro-4-methylbiphenyl-3-yl)-4-hydroxy-8-methoxy-8-(trifluoromethyl)-1-azaspiro[4.5]dec-3-en-2-one], the fraction unbound in data set [1] (setting [3]) came to 0.002; in data set [1] (setting [4]) it was 0.0082.
The matching figures for `CO[C@]1(C(F)(F)F)CC[C@]2(CC1)NC(=O)C(c1cc(-c3ccc(Cl)c(F)c3)ccc1C)=C2O` [Example 1-2, (5r,8r)-3-(4′-Chloro-3′-fluoro-4-methylbiphenyl-3-yl)-4-hydroxy-8-methoxy-8-(trifluoromethyl)-1-azaspiro[4.5]dec-3-en-2-one]: 0.0026 and 0.014.
Consider `COC[C@]1(OC)CC[C@@]2(CC1)NC(=O)C(c1cc(-c3ccc(Cl)cc3)ccc1C)=C2O` [Example 1-3, (5r,8r)-3-(4′-Chloro-4-methylbiphenyl-3-yl)-4-hydroxy-8-methoxy-8-(methoxymethyl)-1-azaspiro[4.5]dec-3-en-2-one], for which the results for the fraction unbound in data set [1] (setting [3]) and in data set [1] (setting [4]) were 0.0041 and 0.038, respectively. The logMA in data set [2] was <1.0.
Consider `COC[C@]1(OC)CC[C@@]2(CC1)NC(=O)C(c1cc(-c3ccc(Cl)c(F)c3)ccc1C)=C2O` [Example 1-4, (5r,8r)-3-(4′-Chloro-3′-fluoro-4-methylbiphenyl-3-yl)-4-hydroxy-8-methoxy-8-(methoxymethyl)-1-azaspiro[4.5]dec-3-en-2-one], for which the results for the fraction unbound in data set [1] (setting [3]), in data set [1] (setting [4]) and in data set [1] (setting [5]) were 0.0037, 0.0217 and 0.0021, respectively.
On to `CO[C@]1(C)CC[C@]2(CC1)NC(=O)C(c1cc(-c3ccc(Cl)cc3)ccc1C)=C2O` [Example V.1-a, (5r,8r)-3-(4′-Chloro-4-methylbiphenyl-3-yl)-4-hydroxy-8-methoxy-8-methyl-1-azaspiro[4.5]dec-3-en-2-one], for which, in data set [1], the “fu [%] (human)” value turned out to be 0.38% and the “fu [%] (rat)” value turned out to be 0.23%. Moreover, the “fu [%] (mouse)” value in data set [1] (mouse plasma) was 2.49%. The same compound had a logMA in data set [2] of 1.4.
The like results for `CO[C@]1(C)CC[C@]2(CC1)NC(=O)C(c1cc(-c3ccc(Cl)c(F)c3)ccc1C)=C2O` [Example V.2-a, (5r,8r)-3-(4′-Chloro-3′-fluoro-4-methylbiphenyl-3-yl)-4-hydroxy-8-methoxy-8-methyl-1-azaspiro[4.5]dec-3-en-2-one] were, in that order, 0.39%, 0.23%, 2.8% and 1.67.
Take `Cc1ccc(-c2ccc(Cl)cc2)cc1C1=C(O)[C@]2(CC[C@](O)(C(F)(F)F)CC2)NC1=O` [V.1-c, (5r,8r)-3-(4′-Chloro-4-methylbiphenyl-3-yl)-4,8-dihydroxy-8-(trifluoromethyl)-1-azaspiro[4.5]dec-3-en-2-one]: in data set [2], the logMA was found to be 2.1.
As to `Cc1ccc(-c2ccc(Cl)c(F)c2)cc1C1=C(O)[C@]2(CC[C@](O)(C(F)(F)F)CC2)NC1=O` [V.2-c, (5r,8r)-3-(4′-Chloro-3′-fluoro-4-methylbiphenyl-3-yl)-4,8-dihydroxy-8-(trifluoromethyl)-1-azaspiro[4.5]dec-3-en-2-one], in data set [2], the logMA turned out to be 2.3.
`COC[C@H]1CC[C@]2(CC1)NC(=O)C(c1cc(-c3ccc(Cl)cc3)ccc1C)=C2O` [V.3-b, (5s,8s)-3-(4′-Chloro-4-methylbiphenyl-3-yl)-4-hydroxy-8-(methoxymethyl)-1-azaspiro[4.5]dec-3-en-2-one]: the fraction unbound in data set [1] (setting [3]) is 0.0036; in data set [1] (setting [4]), 0.109; in data set [1] (setting [5]), 0.0779. In data set [2], this compound had a logMA of 2.08.
For the compound `COC[C@H]1CC[C@]2(CC1)NC(=O)C(c1cc(-c3ccc(Cl)c(F)c3)ccc1C)=C2O` [V.4-b, (5s,8s)-3-(4′-Chloro-3′-fluoro-4-methylbiphenyl-3-yl)-4-hydroxy-8-(methoxymethyl)-1-azaspiro[4.5]dec-3-en-2-one], the fraction unbound was 0.0141 in data set [1] (setting [3]), 0.0176 in data set [1] (setting [4]) and 0.0011 in data set [1] (setting [5]). In addition, in data set [1] (mouse and human, plasma, Table 5), the fu ratio mouse/human is 1. Further, the logMA in data set [2] came out at 2.13.

The values above are taken from US9278925B2, “Substituted 3-(biphenyl-3-yl)-4-hydroxy-8-methoxy-1-azaspiro[4.5]dec-3-en-2-one” (BAYER INTELLECTUAL PROPERTY GMBH, priority 2011, dated 2016).
